Test results: patent US20060234997A1, “Tetrahydro-pyridoazepin-8-ones and related compounds for the treatment of schizophrenia” (WARNER-LAMBERT COMPANY LLC, priority 2005, published 2006)
pKi: −log10 of the molar value.

Biological target: T1, Dopamine D2 receptor (hD2L) (Homo sapiens, UniProt P14416)
T1 construct: expressed in transfected cells; host or cells: CHO cells (CHO-hD2L)
Assay: Dopamine D2 Receptor Binding Assay ([3H]spiperone, CHO-hD2L membranes)
Conditions: [3H]spiperone 0.4 nM, membrane preparation from CHO-hD2L cells
Excerpt: The ability of the novel compounds of this invention to bind to the dopamine D2 receptor can be determined using conventional radioligand receptor binding assays. All receptors can be heterologously expressed in cell lines and binding assays can be conducted in membrane preparations from the cell lines using procedures outlined below. IC50 concentrations can be determined by nonlinear regression of concentration-dependent reduction in specific binding. The Cheng-Prussoff equation can be used to convert the IC50 to Ki concentrations.
[^3H]Spiperone binding to a membrane preparation from CHO-hD2L cells was carried out in 250 μl of 50 mM Tris-HCl buffer containing 100 mM NaCl, 1 mM MgCl2 and 1% DMSO at pH 7.4. Duplicate samples containing (in order of addition) the test compounds, 0.4 nM [^3H]spiperone and approximately 12 μg protein were incubated for 120 minutes at room temperature. Bound radioligand was separated by rapid filtration under reduced pressure through Whatman GF/B glass fiber filters previously treated with 0.3% polyethyleneimine. Radioactivity retained on the filter is determined by liquid scintillation spectrophotometry.

T1 sequence (P14416 whole entry): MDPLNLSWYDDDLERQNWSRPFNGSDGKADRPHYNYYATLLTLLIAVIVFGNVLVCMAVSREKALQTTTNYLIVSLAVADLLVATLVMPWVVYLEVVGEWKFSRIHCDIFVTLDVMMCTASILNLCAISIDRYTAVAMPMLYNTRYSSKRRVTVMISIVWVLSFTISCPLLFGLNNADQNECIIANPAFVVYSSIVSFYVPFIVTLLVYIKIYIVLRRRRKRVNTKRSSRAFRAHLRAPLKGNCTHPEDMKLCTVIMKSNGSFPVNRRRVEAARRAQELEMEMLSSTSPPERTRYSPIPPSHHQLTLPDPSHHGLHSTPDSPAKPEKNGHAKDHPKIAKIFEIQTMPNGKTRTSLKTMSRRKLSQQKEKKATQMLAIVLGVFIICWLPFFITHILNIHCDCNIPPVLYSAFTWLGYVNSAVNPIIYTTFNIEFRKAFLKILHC

| SMILES | pKi |
| --- | --- |
| O=C1CCCc2ccc(OCCCCN3CCN(c4cccc5ccccc45)CC3)nc2N1 [Example 2, 2-[4-(4-Naphthalen-1-yl-piperazin-1-yl)-butoxy]-5,6,7,9-tetrahydro-pyrido[2,3-b]azepin-8-one] | 8.41 |
| O=C1CCCc2ccc(OCCCCN3CCN(c4cccc(Cl)c4Cl)CC3)nc2N1 [Example 3, 2-{4-[4-(2,3-dichloro-phenyl)-piperaxin-1-yl]-butoxy}-5,6,7,9-tetrahydro-pyrido[2,3-b]azepin-8-one] | 8.26 |
| O=C1CCCc2ccc(OCCCCN3CCN(c4cccc5c4OCCC5)CC3)nc2N1 [Example 4, 2-[4-(4-Chroman-8-yl-piperazin-1-yl)-butoxy]-5,6,7,9-tetrahydro-pyrido[2,3-b]azepin-8-one] | 8.70 |
| O=C1CCCc2ccc(OCCCCN3CCN(c4cccc5c4CCCC5)CC3)nc2N1 [Example 5, 2-{4-[4-(5,6,7,8-Tetrahydro-naphthalen-1-yl)-piperazin-1-yl]-butoxy}-5,6,7,9-tetrahydro-pyrido[2,3-b]azepin-8-one] | 8.61 |
| O=C1CCCc2ccc(OCCCCN3CCN(c4cccc5c4CCC5)CC3)nc2N1 [Example 6, 2-[4-(4-Indan-4-yl-piperazin-1-yl)-butoxy]-5,6,7,9-tetrahydro-pyrido[2,3-b]azepin-8-one] | 9.00 |
| O=C1CCCc2ccc(OCCCCN3CCN(c4cccc5c4OCC5)CC3)nc2N1 [Example 7, 2-{4-[4-(2,3-Dihydro-benzofuran-7-yl)-piperazin-1-yl]-butoxy}-5,6,7,9-tetrahydro-pyrido[2,3-b]azepin-8-one] | 8.46 |
| O=C1CCCc2ccc(OCCCCN3CCN(c4cccc5ccc(F)cc45)CC3)nc2N1 [Example 8, 2-{4-[4-(7-Fluoro-naphthalen-1-yl)-piperazin-1-yl]-butoxy}-5,6,7,9-tetrahydro-pyrido[2,3-b]azepin-8-one] | 9.00 |
| O=C1CCCc2ccc(OCCCCN3CCN(c4cccc5c4OCCCO5)CC3)nc2N1 [Example 9, 2-{4-[4-(3,4-Dihydro-2H-benzo[b][1,4]dioxepin-6-yl)-piperazin-1-yl]-butoxy}-5,6,7,9-tetrahydro-pyrido[2,3-b]azepin-8-one] | 8.70 |
| N#Cc1ccc2cccc(N3CCN(CCCCOc4ccc5c(n4)NC(=O)CCC5)CC3)c2c1 [Example 10, 8-{4-[4-(8-Oxo-6,7,8,9-tetrahydro-5H-pyrido[2,3-b]azepin-2-yloxy)-butyl]-piperazin-1-yl}-naphthalene-2-carbonitrile] | 8.55 |
| CN1C(=O)CCc2cccc(N3CCN(CCCCOc4ccc5c(n4)NC(=O)CCC5)CC3)c21 [Example 11, 2-{4-[4-(1-Methyl-2-oxo-1,2,3,4-tetrahydro-quinolin-8-yl)-piperazin-1-yl]-butoxy}-5,6,7,9-tetrahydro-pyrido[2,3-b]azepin-8-one] | 7.72 |
| O=C1NCCc2ccc(OCCCCN3CCN(c4cccc(Cl)c4Cl)CC3)nc2N1 [Example 14, 2-{4-[4-(2,3-Dichloro-phenyl)-piperazin-1-yl]-butoxy}-5,6,7,9-tetrahydro-1,7,9-triaza-benzocyclohepten-8-one] | 9.00 |
| O=C1NCCc2ccc(OCCCCN3CCN(c4cccc5ccccc45)CC3)nc2N1 [Example 15, 2-[4-(4-Naphthalen-1-yl-piperazin-1-yl)-butoxy]-5,6,7,9-tetrahydro-1,7,9-triaza-benzocyclohepten-8-one] | 9.00 |
| O=C1NCCc2ccc(OCCCCN3CCN(c4cccc5c4CCCC5)CC3)nc2N1 [Example 16, 2-{4-[4-(5,6,7,8-Tetrahydro-naphthalen-1-yl)-piperazin-1-yl]-butoxy}-5,6,7,9-tetrahydro-1,7,9-triaza-benzocyclohepten-8-one] | 8.85 |
| O=C1NCCc2ccc(OCCCCN3CCN(c4cccc5c4OCCC5)CC3)nc2N1 [Example 17, 2-[4-(4-Chroman-8-yl-piperazin-1-yl)-butoxy]-5,6,7,9-tetrahydro-1,7,9-triaza-benzocyclohepten-8-one] | 9.00 |
| COc1ccc2cccc(N3CCN(CCCCOc4ccc5c(n4)NC(=O)NCC5)CC3)c2c1 [Example 21, 2-{4-[4-(7-Methoxy-naphthalen-1-yl)-piperazin-1-yl]-butoxy}-5,6,7,9-tetrahydro-1,7,9-triaza-benzocyclohepten-8-one] | 9.40 |
| N#Cc1ccc2cccc(N3CCN(CCCCOc4ccc5c(n4)NC(=O)NCC5)CC3)c2c1 [Example 22, 8-{4-[4-(8-Oxo-6,7,8,9-tetrahydro-5H-1,7,9-triaza-benzocyclohepten-2-yloxy)-butyl]-piperazin-1-yl}-naphthalene-2-carbonitrile] | 9.40 |
| CN1C(=O)CCc2cccc(N3CCN(CCCCOc4ccc5c(n4)NC(=O)NCC5)CC3)c21 [Example 23, 2-{4-[4-(1-Methyl-2-oxo-1,2,3,4-tetrahydro-quinolin-8-yl)-piperazin-1-yl]-butoxy}-5,6,7,9-tetrahydro-1,7,9-triaza-benzocyclohepten-8-one] | 8.52 |
| Cc1c(F)ccc(N2CCN(CCCCOc3ccc4c(c3)NC(=O)NCC4)CC2)c1Cl [Example 30, 8-{4-[4-(2-Chloro-4-fluoro-3-methyl-phenyl)-piperazin-1-yl]-butoxy}-1,3,4,5-tetrahydro-benzo[d][1,3]diazepin-2-one] | 8.70 |
| Cc1cc(N2CCN(CCCCOc3ccc4c(c3)NC(=O)NCC4)CC2)c(Cl)cc1F [Example 31, 8-{4-[4-(2-Chloro-4-fluoro-5-methyl-phenyl)-piperazin-1-yl]-butoxy}-1,3,4,5-tetrahydro-benzo[d][1,3]diazepin-2-one] | 8.22 |
| O=C1NCCc2ccc(OCCCCN3CCN(c4cccc5ccccc45)CC3)cc2N1 [Example 32, 8-[4-(4-Naphthalen-1-yl-piperazin-1-yl)-butoxy]-1,3,4,5-tetrahydro-benzo[d][1,3]diazepin-2-one] | 8.46 |
| CCc1cccc(N2CCN(CCCCOc3ccc4c(c3)NC(=O)NCC4)CC2)n1 [Example 33] | 8.55 |
| CC(C)c1cccc(N2CCN(CCCCOc3ccc4c(c3)NC(=O)NCC4)CC2)n1 [Example 34, 8-{4-[4-(6-Isopropyl-pyridin-2-yl)-piperazin-1-yl]-butoxy}-1,3,4,5-tetrahydro-benzo[d][1,3]diazepin-2-one] | 8.57 |
| O=C1NCCc2ccc(OCCCCN3CCN(c4ccc(F)cc4Cl)CC3)cc2N1 [Example 35, 8-{4-[4-(2-Chloro-4-fluoro-phenyl)-piperazin-1-yl]-butoxy}-1,3,4,5-tetrahydro-benzo[d][1,3]diazepin-2-one] | 8.52 |
| O=C1NCCc2ccc(OCCCCN3CCN(c4ccc(F)c(Cl)c4Cl)CC3)cc2N1 [Example 36, 8-{4-[4-(2,3-Dichloro-4-fluoro-phenyl)-piperazin-1-yl]-butoxy}-1,3,4,5-tetrahydro-benzo[d][1,3]diazepin-2-one] | 8.52 |
| O=C1NCCc2ccc(OCCCCN3CCN(c4cccc5ccc(F)cc45)CC3)cc2N1 [Example 38, 8-{4-[4-(7-Fluoro-naphthalen-1-yl)-piperazin-1-yl]-butoxy}-1,3,4,5-tetrahydro-benzo[d][1,3]diazepin-2-one] | 8.65 |
| O=C1NCCc2ccc(OCCCCN3CCN(c4cccc5nsnc45)CC3)cc2N1 [Example 39, 8-{4-[4-(2,1,3-benzothiadiazol-4-yl)piperazin-1-yl]butoxy}-1,3,4,5-tetrahydro-2H-1,3-benzodiazepin-2-one] | 8.59 |
